Reference: PMC9814838, “The orphan nuclear receptor Nurr1 is responsive to non-steroidal anti-inflammatory drugs” (Communications Chemistry, 2020)
“And” between values parts separate entries of the source, which are not always exact repeats. Identical values can stand only once. “Also recorded” adds a separate entry of the source.

T1: NOR1 (Homo sapiens, UniProt Q92570)
T1 construct: NOR1 (isoform alpha; uniprot entry: hNOR1–Q92570-1, residues 393–626); expressed in transfected cells; host or cells: HEK293T
T1 sequence (Q92570 393-626): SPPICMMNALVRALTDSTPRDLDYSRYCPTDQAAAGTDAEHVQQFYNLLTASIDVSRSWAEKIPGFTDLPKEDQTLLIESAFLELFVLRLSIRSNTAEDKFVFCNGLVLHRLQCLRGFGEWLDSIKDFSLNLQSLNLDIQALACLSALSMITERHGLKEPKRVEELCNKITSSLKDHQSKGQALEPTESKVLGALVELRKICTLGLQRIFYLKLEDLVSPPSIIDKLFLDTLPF

T2: RXRα (Homo sapiens, UniProt P19793)
T2 construct: expressed in transfected cells; host or cells: HEK293T
T2 sequence (P19793 227-458 limits assumed): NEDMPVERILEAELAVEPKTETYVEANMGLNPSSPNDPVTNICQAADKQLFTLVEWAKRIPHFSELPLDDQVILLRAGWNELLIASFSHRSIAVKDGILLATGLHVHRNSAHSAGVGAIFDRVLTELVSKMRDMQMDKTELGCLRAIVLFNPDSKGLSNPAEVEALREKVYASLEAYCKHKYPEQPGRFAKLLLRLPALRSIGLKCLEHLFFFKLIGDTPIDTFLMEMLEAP

T3: GFP-RXRα LBD (human, UniProt P19793-1 226-462)
T3 construct: Superfolder GFP is the FRET acceptor; a BamHI site lies between GFP and the LBD; also called GFP-labeled RXRα LBD; source: E. coli T7 express with pGro7, purified (IMAC, TEV cleavage, reverse IMAC, SEC); not shown: His10, N-terminal, cleaved; superfolder GFP, N-terminal, kept
T3 sequence (looked up): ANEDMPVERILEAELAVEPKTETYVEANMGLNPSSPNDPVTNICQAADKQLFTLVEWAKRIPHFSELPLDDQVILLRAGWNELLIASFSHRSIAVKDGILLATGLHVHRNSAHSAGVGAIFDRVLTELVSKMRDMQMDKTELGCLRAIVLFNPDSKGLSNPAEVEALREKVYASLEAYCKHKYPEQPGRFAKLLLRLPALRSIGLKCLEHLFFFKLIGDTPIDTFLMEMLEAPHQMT

B1: GFP-Nurr1 LBD (domain or fragment, human, UniProt P43354-1 364-598, looked up)
chain: LISALVRAHVDSNPAMTSLDYSRFQANPDYQMSGDDTQHIQQFYDLLTGSMEIIRGWAEKIPGFADLPKADQDLLFESAFLELFVLRLAYRSNPVEGKLIFCNGVVLHRLQCVRGFGEWIDSIVEFSSNLQNMNIDISAFSCIAALAMVTERHGLKEPKRVEELQNKIVNCLKDHVTFNNGGLNRPNYLSKLLGKLPELRTLCTQGLQRIFYLKLEDLVPPPAIIDKLFLDTLPF
notes: Superfolder GFP is the FRET acceptor; a BamHI site lies between GFP and the LBD; also called GFP-labeled Nurr1 LBD; source: E. coli T7 express with pGro7, purified (IMAC, TEV cleavage, reverse IMAC, SEC); not shown: His10, N-terminal, cleaved; superfolder GFP, N-terminal, kept
B2: biotinylated recombinant Nurr1 LBD (Tb-labeled through Tb-cryptate streptavidin) (domain or fragment, human, UniProt P43354-1 364-598, looked up)
chain: LISALVRAHVDSNPAMTSLDYSRFQANPDYQMSGDDTQHIQQFYDLLTGSMEIIRGWAEKIPGFADLPKADQDLLFESAFLELFVLRLAYRSNPVEGKLIFCNGVVLHRLQCVRGFGEWIDSIVEFSSNLQNMNIDISAFSCIAALAMVTERHGLKEPKRVEELQNKIVNCLKDHVTFNNGGLNRPNYLSKLLGKLPELRTLCTQGLQRIFYLKLEDLVPPPAIIDKLFLDTLPF
modifications: biotin on the lysine residue in the Avi-Tag
notes: In the assays coupled to terbium cryptate streptavidin conjugate (Tb-SA) as FRET donor; also called Tb-labeled Nurr1 LBD; Tb-cryptate-labeled Nurr1 LBD; source: E. coli T7 express with pGro7, purified (IMAC, TEV cleavage, amylose resin, birA biotinylation, monomeric avidin, SEC); not shown: MBP, N-terminal, cleaved; His8, N-terminal, cleaved; Avi-Tag, N-terminal, kept

Tests used:
Nurr1 = molecular target: T4, Nurr1 (Homo sapiens, UniProt P43354); assay: Gal4-Nurr1 hybrid reporter gene assay in HEK293T cells; assay type: cell-based; conditions: for Nurr1 activity 10μM (mean fold activation) / Nurr1 activity 30μM (mean fold activation): primary screen, n ≥ 2, ^# not significant vs VP16 control; for Gal4-Nurr1 maximum/minimum activation: vs 0.1% DMSO; for Nurr1-dependent reporter activity in primary screen (fold activation): 10 or 30 µM
T4 construct: Nurr1 (uniprot entry: hNURR1–P43354, residues 360–598); expressed in transfected cells; host or cells: HEK293T

Nur77 = molecular target: T5, Nur77 (Homo sapiens, UniProt P22736); assay: Gal4-Nur77 hybrid reporter gene assay in HEK293T cells; assay type: cell-based; conditions: for Nur77 activity 10μM (mean fold activation) / Nur77 activity 30μM (mean fold activation): primary screen, n ≥ 2, ^# not significant vs VP16 control; for Nur77 min./max. activation: compared to 0.1% DMSO
T5 construct: Nur77 (uniprot entry: hNUR77–P22736, residues 358–598); expressed in transfected cells; host or cells: HEK293T

NOR1 = molecular target: T1, NOR1; assay: Gal4-NOR1 hybrid reporter gene assay in HEK293T cells; assay type: cell-based; conditions: for Nor1 activity 10μM (mean fold activation) / Nor1 activity 30μM (mean fold activation): primary screen, n ≥ 2, ^# not significant vs VP16 control; for NOR1 min./max. activation: compared to 0.1% DMSO
firefly luciferase = firefly luciferase (Photinus pyralis, UniProt P08659); assay: Firefly luciferase inhibition; conditions: compounds marked with * in Fig. 2a
PPAR; RXRα; RARα = assay: Selectivity profiling in Gal4 hybrid reporter gene assays outside the NR4A family; assay type: cell-based, human; conditions: rel. activation vs reference agonists at 1 µM; n ≥ 4
NBRE: Nurr1 monomer = molecular target: T6, NBRE: Nurr1 monomer (Homo sapiens, UniProt P43354); assay: Full-length Nurr1 reporter gene assay on NBRE response element; assay type: cell-based
T6 construct: the activity of full-length human Nurr1 in cellular settings; host or cells: HEK293T

NurRE: Nurr1 homodimer = molecular target: T7, NurRE: Nurr1 homodimer (Homo sapiens, UniProt P43354); assay: Full-length Nurr1 reporter gene assay on NurRE response element; assay type: cell-based; conditions: mean ± SD; for IC50: full-length human Nurr1, HEK293T
T7 construct: the activity of full-length human Nurr1 in cellular settings; host or cells: HEK293T

[1] = molecular target: T8, DR5: Nurr1–RXRα heterodimer (Homo sapiens, UniProt P43354); assay: Full-length Nurr1 reporter gene assay on DR5 response element; assay type: cell-based; conditions: mean ± SD; for IC50: full-length human Nurr1 and RXRα overexpressed, HEK293T
T8 construct: the activity of full-length human Nurr1 in cellular settings; host or cells: HEK293T

Nurr1 LBD homodimer = molecular target: T9, Nurr1 LBD homodimer (Homo sapiens, UniProt P43354); assay: Nurr1 homodimerization HTRF (GFP-Nurr1 LBD vs Tb-labeled Nurr1 LBD); assay type: biochemical; conditions: cell-free; ligand 100 µM
T9 construct: Nurr1 (uniprot entry: P43354-1, residues 364–598); MBP-Asn10 linker (N, cleaved yes); His8-Tag (N, cleaved yes); His10-Tag (N, cleaved yes); made in house; host or cells: E. coli T7 express (with pGro7)
Description: Strength and modulation of the formation of the heterodimer composed of the LBDs of Nurr1 and RXRα was investigated by titration of GFP-RXRα LBD against a fixed concentration of Nurr1 LBD. Assay solutions were prepared in HTRF assay buffer supplemented with 0.1% (w/v) CHAPS as well as 1% DMSO with test compounds at 100 µM or DMSO alone as negative control. […] Free GFP was added to keep the total GFP content stable at 4 µM throughout the entire series in order to suppress artefacts from changes in degree of diffusion enhanced FRET. Samples were equilibrated at RT for 2 h before FI520 and FI620 were recorded after excitation at 340 nm, and the HTRF signal was calculated as described above.

Nurr1–NCoR-1 interaction = molecular target: T10, Nurr1–NCoR-1 interaction (Homo sapiens, UniProt P43354); assay: Nurr1–NCoR-1 interaction HTRF (GFP-Nurr1 LBD titrated against Tb-labeled NCoR-1); assay type: biochemical; conditions: cell-free; ligand fixed at 100 µM
T10 construct: Nurr1 (uniprot entry: P43354-1, residues 364–598); His10-Tag (N, cleaved yes); made in house; host or cells: E. coli T7 express (with pGro7)
Description: Since ligand concentration was fixed in this setting, interference with the HTRF system is less prone to generate potential artifacts.
To maintain a constant GFP concentration, free GFP protein was added to the dilution series. The experiments were performed in HTRF assay buffer (150 mM KF, 25 mM HEPES pH 7.5 (KOH), 5% (w/v) Glycerol, supplemented with 0.1% (w/v) CHAPS and 5 mM DTT) with 1% DMSO in an assay volume of 20 µl. After 1 h incubation at RT, fluorescence intensities after excitation at 340 nm were recorded at 520 nm for GFP acceptor fluorescence and 620 nm for Tb-SA donor fluorescence and the HTRF signal was calculated as described above.

Gal4-VP16 = molecular target: T11, Gal4-VP16 (Human herpesvirus 1, UniProt P06492); assay type: cell-based; conditions: n ≥ 4
T11 construct: host or cells: HEK293T

RXRα = molecular target: T2, RXRα; assay: Gal4-RXRα hybrid reporter gene assay (selectivity); assay type: cell-based; conditions: selectivity profiling; also described previously
[2] = molecular target: B2; assay: AlphaScreen or HTRF; Nurr1 homodimerization: GFP-Nurr1 LBD titrated from 500 nM against biotinylated Nurr1 LBD 0.375 nM on Tb-SA 0.75 nM; free GFP added to keep total GFP at 500 nM; HTRF assay buffer with 0.1% CHAPS; 1% DMSO alone or with AQ, CQ, parecoxib or oxaprozin at 100 µM; 2 h at RT; conditions: both partners purified
GFP-RXRα LBD = molecular target: T3, GFP-RXRα LBD; assay: AlphaScreen or HTRF; Nurr1-RXR heterodimerization: GFP-RXRα LBD titrated from 4 µM (dilution factor 0.7) against biotinylated Nurr1 LBD 0.375 nM on Tb-SA 0.75 nM; free GFP added to keep total GFP at 4 µM; HTRF assay buffer with 0.1% CHAPS; 1% DMSO alone or with AQ, CQ, MFA, parecoxib or oxaprozin at 100 µM; 2 h at RT; conditions: both partners purified

T4 sequence (P43354 360-598): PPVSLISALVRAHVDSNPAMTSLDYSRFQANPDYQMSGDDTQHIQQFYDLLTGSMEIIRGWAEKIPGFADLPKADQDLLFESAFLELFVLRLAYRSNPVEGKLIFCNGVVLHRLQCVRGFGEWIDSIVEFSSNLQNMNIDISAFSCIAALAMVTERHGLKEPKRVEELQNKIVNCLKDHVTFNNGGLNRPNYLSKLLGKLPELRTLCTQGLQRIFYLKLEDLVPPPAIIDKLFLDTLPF
T5 sequence (P22736 358-598): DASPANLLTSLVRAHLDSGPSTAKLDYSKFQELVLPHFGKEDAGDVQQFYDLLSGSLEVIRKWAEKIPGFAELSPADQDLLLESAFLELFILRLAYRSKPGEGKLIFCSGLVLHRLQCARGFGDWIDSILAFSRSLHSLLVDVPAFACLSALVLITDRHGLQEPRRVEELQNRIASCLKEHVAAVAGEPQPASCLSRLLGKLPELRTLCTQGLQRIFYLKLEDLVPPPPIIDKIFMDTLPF
T7 sequence (P43354 whole entry): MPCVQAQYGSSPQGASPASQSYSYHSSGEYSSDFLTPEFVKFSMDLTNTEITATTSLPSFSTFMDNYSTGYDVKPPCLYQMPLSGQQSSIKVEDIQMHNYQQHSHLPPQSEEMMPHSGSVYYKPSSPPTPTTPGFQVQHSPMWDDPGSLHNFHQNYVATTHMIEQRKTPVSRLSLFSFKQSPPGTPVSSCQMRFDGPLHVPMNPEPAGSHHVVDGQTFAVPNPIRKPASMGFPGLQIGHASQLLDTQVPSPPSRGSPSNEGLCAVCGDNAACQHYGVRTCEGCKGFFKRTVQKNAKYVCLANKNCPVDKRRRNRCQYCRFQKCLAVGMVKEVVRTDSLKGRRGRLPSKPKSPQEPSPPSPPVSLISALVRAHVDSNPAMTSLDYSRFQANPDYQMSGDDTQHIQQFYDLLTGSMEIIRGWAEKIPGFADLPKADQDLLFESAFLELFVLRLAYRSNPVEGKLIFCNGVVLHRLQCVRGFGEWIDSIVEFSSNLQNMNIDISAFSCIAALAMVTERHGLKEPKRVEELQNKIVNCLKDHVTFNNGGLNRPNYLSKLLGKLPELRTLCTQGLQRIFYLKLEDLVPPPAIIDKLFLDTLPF
T8 sequence (P43354 whole entry, one chain of several): as the sequence (P43354 whole entry) above
T6 sequence (P43354 whole entry): as above
Sequence of firefly luciferase (P08659 whole entry, the tested form may be a part): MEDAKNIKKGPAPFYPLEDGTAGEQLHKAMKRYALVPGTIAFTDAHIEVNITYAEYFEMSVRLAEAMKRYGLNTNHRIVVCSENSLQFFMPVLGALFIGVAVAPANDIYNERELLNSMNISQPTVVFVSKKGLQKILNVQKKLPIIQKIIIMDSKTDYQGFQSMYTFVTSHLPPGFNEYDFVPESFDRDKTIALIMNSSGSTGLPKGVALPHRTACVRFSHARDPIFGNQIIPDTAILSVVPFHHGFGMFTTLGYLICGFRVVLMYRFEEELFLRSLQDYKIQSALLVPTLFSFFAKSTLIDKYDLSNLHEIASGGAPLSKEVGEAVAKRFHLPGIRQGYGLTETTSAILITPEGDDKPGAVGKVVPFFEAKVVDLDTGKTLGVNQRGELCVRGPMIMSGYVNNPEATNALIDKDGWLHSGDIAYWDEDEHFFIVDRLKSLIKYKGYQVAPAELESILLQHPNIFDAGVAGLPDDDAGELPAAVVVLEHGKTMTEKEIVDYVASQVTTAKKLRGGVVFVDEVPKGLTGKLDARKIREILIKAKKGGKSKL

Row | Molecule | Nurr1 activity 10μM (mean fold activation) (Nurr1) | Nurr1 activity 30μM (mean fold activation) (Nurr1) | Gal4-Nurr1 maximum/minimum activation (Nurr1; mean ± SD) | Nur77 activity 10μM (mean fold activation) (Nur77) | Nur77 activity 30μM (mean fold activation) (Nur77) | Nor1 activity 10μM (mean fold activation) (NOR1) | Nor1 activity 30μM (mean fold activation) (NOR1) | Selectivity over PPAR, RXRα, RARα (PPAR; RXRα; RARα) | NOR1 min./max. activation (NOR1; mean ± SD) | Control experiments on Gal4-VP16 (non-specific reporter effects) (Gal4-VP16) | further results
1 | O=C(O)COC(=O)Cc1ccccc1Nc1c(Cl)cccc1Cl [aceclofenac] | 0.85 fold | 0.46 fold | 1.99 ± 0.07 fold | 0.84 fold | 0.60 fold | 0.94 fold | 0.49 fold | confirmed selectivity |  |  | EC50 (Nurr1; HEK293T, mean ± SD, n≥3): 2.5 ± 0.1 µM; Inhibition of firefly luciferase (firefly luciferase): inhibit firefly luciferase
2 | Cc1ccc(Cl)c(Nc2ccccc2C(=O)O)c1Cl [MFA, Meclofenamic acid] | 3.60 fold | toxic | 3.52 ± 0.05 fold | 3.01 fold | toxic | 3.92 fold | toxic | confirmed selectivity | 5.5 ± 0.6 | clearly Nurr1 mediated | Nurr1-dependent reporter activity in primary screen (fold activation) (Nurr1): > 1.5 fold; EC50 (Nurr1; HEK293T, mean ± SD, n≥3): 4.7 µM; Gal4-Nurr1 maximum/minimum activation (Nurr1; mean ± SD, listed as meclofenamic acid): 3.52 ± 0.05 fold and 3.52 ± 0.07 fold; EC50 (Nur77; HEK293T, mean ± SD, n≥3): 3.9 ± 0.7 µM; Nur77 min./max. activation (Nur77; mean ± SD): 3.3 ± 0.4; EC50 (NOR1; HEK293T, mean ± SD, n≥3): 7.9 ± 0.8 µM; NBRE: Nurr1 monomer activity in words (NBRE: Nurr1 monomer; full-length human Nurr1, HEK293T): Inactive; IC50 (NurRE: Nurr1 homodimer): 5.2 µM; NurRE: Nurr1 homodimer maximum/minimum activation (NurRE: Nurr1 homodimer): 0.70 ± 0.01 fold; IC50 [1]: 10.7 µM; DR5: Nurr1–RXRα heterodimer maximum/minimum activation [1]: 0.79 ± 0.01 fold; Homodimerization (effect of ligand) (Nurr1 LBD homodimer): entirely prevented homodimerization; also recorded: Decreases dimerization; NCoR-1 affinity (effect of ligand) (Nurr1–NCoR-1 interaction): markedly reduced affinity; also recorded: Decreases affinity
3 | CCC(=O)NS(=O)(=O)c1ccc(-c2c(-c3ccccc3)noc2C)cc1 [parecoxib] |  |  |  |  |  |  |  |  | 0.22 ± 0.05 | no non-specific reporter suppression | IC50 (Nur77; HEK293T, mean ± SD, n≥3): 23.7 ± 0.2 µM; Nur77 min./max. activation (Nur77; mean ± SD): 0.1 ± 0.0; IC50 (NOR1; HEK293T, mean ± SD, n≥3, read-out: NOR1 IC50): 25 ± 4 µM; IC50 (NBRE: Nurr1 monomer; full-length human Nurr1, HEK293T, mean ± SD): 15 µM; NBRE: Nurr1 monomer maximum/minimum activation (NBRE: Nurr1 monomer; mean ± SD): 0.41 ± 0.05 fold; IC50 (NurRE: Nurr1 homodimer): 21 µM; NurRE: Nurr1 homodimer maximum/minimum activation (NurRE: Nurr1 homodimer): 0.4 ± 0.1 fold; IC50 [1]: 20 µM; DR5: Nurr1–RXRα heterodimer maximum/minimum activation [1]: 0.5 ± 0.1 fold; Homodimerization (effect of ligand) (Nurr1 LBD homodimer): diminished Nurr1 dimer formation; NCoR-1 affinity (effect of ligand) (Nurr1–NCoR-1 interaction): Decreases affinity
4 | O=C(O)CCc1nc(-c2ccccc2)c(-c2ccccc2)o1 [oxaprozin] |  |  |  |  |  |  |  |  | ≥ 0.00 | no non-specific reporter suppression | RXR agonism (RXRα): weak RXR agonism
5 | Cc1ccc(Nc2c(F)cccc2Cl)c(CC(=O)O)c1 [lumiracoxib] | 0.90 fold | 0.76 fold |  | 0.76 fold | 0.66 fold | 0.86 fold | 0.79 fold |  |  |  | Inhibition of firefly luciferase (firefly luciferase): inhibit firefly luciferase
6 | Cc1onc(-c2ccccc2)c1-c1ccc(S(N)(=O)=O)cc1 [valdecoxib] | 0.79 fold | 0.54 fold | 0.52 ± 0.04 fold | 0.90 fold | 0.82 fold | 1.05 fold | 0.76 fold | confirmed selectivity |  | no non-specific reporter suppression | Nurr1-dependent reporter activity in primary screen (fold activation) (Nurr1): < 0.80 fold; IC50 (Nurr1; HEK293T, mean ± SD, n≥3): 13 ± 3 µM
7 | B1 |  |  |  |  |  |  |  |  |  |  | binding result [2]: binds
8 | B2 |  |  |  |  |  |  |  |  |  |  | binding result (GFP-RXRα LBD): binds
